Test results published in US20100105610A1, “Methods of Inhibiting Tumor Cell Aggressiveness Using the Microenvironment of Human Embryonic Stem Cells” (CHILDREN'S MEMORIAL HOSPITAL, priority 2006, published 2010).

Experiments:
Format in all cases: cell-based, human
C8161 cells [1] = assay: Membrane Invasion Culture System (MICS) invasion assay; conditions: C8161 cells treated with ALK 4/5/7 inhibitor
From the text: Bars represent the mean, normalized, invasion indices±standard deviations.
The aggressiveness of tumor cells is correlated with their ability to invade through the extracellular matrix; thus, the effect of hESC microenvironments on melanoma cell invasion was investigated.
The Membrane Invasion Culture System (MICS) chamber is used to evaluate the degree of tumor cell invasion through matrices in vitro (both stimulated and unstimulated) as described previously.

Nodal = Nodal protein expression, Western blot
Experimental: (§1) Protein lysates were prepared and quantified as previously described in Hess et al., 2001, Cancer Res. 61:3250-3255. Equal amounts of protein were separated by SDS-polyacrylamide gel electrophoresis under reducing conditions, and the resolved proteins were transferred onto Immobilon-P membranes (Millipore Corp., Bedford, Mass.). Membranes were blocked in 1% TBS, 0.1% Tween 20 (TBS-T) and 5% dry milk powder or 3% gelatin (for Nodal Westerns). Blots were incubated with anti-Nodal or anti-Lefty antibodies (Polyclonal rabbit anti-Nodal (H-110) 1:500 Santa Cruz Biotechnology, Santa Cruz, Calif.; Polyclonal goat anti-Lefty 1:500 R&D Systems, Minneapolis, Minn.), washed in TBS-T, and incubated with the appropriate horseradish peroxidase-labeled secondary antibody. Secondary antibodies were detected by enhanced chemiluminescence (Super Signal; Pierce, Rockford, Ill.) and exposure to autoradiography film (Molecular Technologies, St Louis, Mo.). Nodal protein was detected as two major bands at ˜48 and ˜35 kDa representing precursor and pro-Nodal respectively. Nodal often appeared as multiple bands, likely due to degradation of protein modifications. All experiments were done at least three times.
Conditioned matrices were prepared using hESCs, melanocytes, myoepithelial cells, amniotic fluid derived stem cells, or trophoblast cells on growth factor-reduced Matrigel (14 mg/mL; BD Biosciences) as previously described. Postovit et al., 2006, Stem Cells 24: 501-505. In all cases, cells were 80-100% confluent during the conditioning of the matrix. Alternatively, hESC-derived Lefty protein was seeded into Matrigel prior to polymerization. Human melanoma (C8161) or breast carcinoma (MDA-MB-231) cells, 2.5×10^5 cells/6-well dish, were subsequently exposed to this preconditioned matrix for 3 to 4 days.
as §1, with “primary antibody (Table 2),” for “anti-Nodal or anti-Lefty antibodies (Polyclonal rabbit anti-Nodal (H-110) 1:500 Santa Cruz Biotechnology, Santa Cruz, Calif.; Polyclonal goat anti-Lefty 1:500 R&D Systems, Minneapolis, Minn.),”, “TBS-T or TBS-T containing 0.5M NaCl for the Nodal Westerns,” for “TBS-T,”, “Nodal often appeared as multiple bands, likely due to degradation of protein modifications. All experiments were done at least three times.” left out

VE-Cadherin, Keratin 18 = assay: Western blot of vasculogenic mimicry plasticity biomarkers in C8161 cells; conditions: C8161 cells on 3-D collagen I matrices for 6 days
Experimental: (A) Western blot analyses of Nodal, phosphorylated SMAD-2, total SMAD 2/3, and Actin in C8161 cells 48 hours after administration of either vehicle or an ALK 4/5/7 inhibitor (SB431542, 1 μM, 10 μM). […] (B) Western blot analyses of Nodal, Tyrosinase and Actin in C8161 cells 24 hours after the administration of either vehicle or different concentrations of ALK inhibitor while (C) is a Western analyses for VE-Cadherin, Keratin 18 and Actin in C8161 cells cultured on 3-D collagen I matrices for 6 days in the presence of vehicle or different concentrations of ALK inhibitor.

C8161 cells [2] = assay: Vasculogenic mimicry of C8161 cells; conditions: C8161 cells treated with ALK 4/5/7 inhibitor
Notch 1, 2 and 4 = assay: Notch expression, Western blot in C8161 cells
From the text: Western blot analysis of C8161 cells 72 hrs following the administration of siRNA. […] Western blot analysis of Notch 1, 2 and 4 in C8161 cells treated with the Nodal inhibitor SB431542.

Lefty = Lefty knockdown in hESCs with FITC-tagged Morpholinos (microscopy, Western blot)
From the text: Cancer cells were also exposed to Matrigel conditioned by hESCs in which Lefty protein expression was knocked down with FITC-tagged Morpholino oligonucleotides specific for Lefty-A and Lefty-B (MO^LEFTY). […] The expression of Oct-3/4 and Nanog, representative of hESC pluripotency, was not affected during this time, and the morphology of the hESC colonies was not altered.
Nodal, and Lefty protein expression were inhibited using anti-sense Morpholino oligonucleotides (Gene Tools Inc., Philomath, Oreg.). The Morpholino sequences were selected based on manufacturer's recommendations (21-25 mer antisense). Fluoroscein (FITC)-conjugated control (5′-[…]-3′) [SEQ ID NO: 19], Nodal (5′-[…]-3′) [SEQ ID NO: 20], Lefty-A (5′-[…]-3′) [SEQ ID NO: 21], and Lefty-B (5′[…]-3′) [SEQ ID NO: 22]. Morpholinos (20 μM) were delivered using the scrape method. Topczewska et al., 2006. Cancer cells were sorted for FITC and were recovered for 1 day prior to experimentation.

H9 hESCs = assay: hESC pluripotency (Oct-3/4 and Nanog expression, colony morphology); conditions: Oct-3/4, Nanog
From the text: (A) An abundance of the Nodal inhibitor Lefty within the hESC conditioned matrices (CMTX). Lefty protein is absent in the C8161 cells within its own conditioned matrix (C8161+CMTX). (B) Immunofluorescence localization of FITC-conjugated anti Lefty Morpholinos (MO^LEFTY) in H9 hESC colonies on Matrigel. (C) Western blot analysis of Lefty protein in H9 hESCs treated with either vehicle (Control), MO^Control (MO Control), or MO^Lefty (MO Lefty). Actin is used as a loading control. (D) Real Time RT-PCR analysis of Oct-3/4 and Nanog expression in H9 hESCs treated with either vehicle (H9), MO^CONTROL (MO Control), or MO^LEFTY (MO Lefty). Gene levels were normalized using 18s and bars represent mean gene expression normalized to H9. (E) Real Time RT-PCR analysis of Nodal mRNA expression in C8161 cells cultured for 3 days on control (unconditioned) Matrigel, Matrigel conditioned by hESCs (H9 CMTX) or Matrigel conditioned by hESCs in which Lefty protein expression was […] with Lefty-specific Morpholinos (H9 CMTX MO Lefty). (F) Western blot analysis of Nodal protein in human metastatic melanoma (C8161) and breast carcinoma (MDA-MB-231) cells exposed for 3 days to either control (unconditioned) Matrigel or to Matrigel seeded with Lefty protein purified from hESCs (H9-derived Lefty). […]

C8161 cells [3] = assay: Anchorage independent growth / soft agar colony formation, C8161; conditions: 100 ng/mL
Experimental: (§2) An in vitro colony forming assay was used to analyze colony-forming ability of poorly aggressive C81-61 cells, aggressive C8161 cells, C8161 cells treated with MONodal and C8161 cells treated with MONodal and rescued with recombinant Nodal (100 ng/mL). The assay was conducted using 50,000 cells suspended in 0.35% agarose in RPMI containing 10% serum, which were plated into 6-well dishes on 0.5% agar in the same medium. Colonies grew, and pictures were taken at day 7. After 2 weeks, colonies were stained with Crystal Violet and counted.
(§3) Clonogenicity of cells are assessed as previously described. Hamburger, A. W., and Salmon, S. E., 1977, Science 197:461-463. Each parameter is tested in triplicate for clone formation in soft agar. Briefly, […] are plated in 60 mm Petri dishes in complete medium placed over the soft agar. On specific days after the cells are plated, phase contrast images of the colonies are taken using a Zeiss Axiovert 25 with an Hitachi HCV-20 color camera.
(§4) Anchorage independent growth assays were conducted as previously described. Topczewska et al., 2006, Nat. Med. 12: 925-932.

MDA-MB-231 cells = assay: Anchorage independent growth / soft agar colony formation, MDA-MB-231; conditions: 100 ng/mL
Experimental: as §3, §4

C81-61 cells = assay: Soft agar colony formation, C81-61; conditions: C81-61 cell line
Experimental: as §2, §3

NC(=O)c1ccc(-c2nc(-c3ccc4c(c3)OCO4)c(-c3ccccn3)[nH]2)cc1 [SB431542]
invasive ability (C8161 cells [1]): reduction
Nodal expression (Nodal; C8161 cells, 1 μM, 10 μM, 48 hours): down-regulation
expression of vasculogenic mimicry plasticity biomarkers (VE-Cadherin, Keratin 18): reduction
vasculogenic mimicry (C8161 cells [2]): abrogation
Notch expression (Notch 1, 2 and 4): relatively unaffected

MO^LEFTY: FITC-tagged Morpholino oligonucleotides specific for Lefty-A and Lefty-B (SEQ ID NO: 21, 22) (chain 1 GCCACATGGTGCTGCCCTGGG; chain 2 CTGCATGGTGCTGCCCTGGAGGA; all phosphorodiamidate morpholino (PMO); FITC (fluorescein) conjugated, position not given here)
Lefty protein expression in hESCs (Lefty; H9 hESCs, Western blot, for up to 3 days): efficiently knocked down
hESC colonies in which the fluorescently-tagged Morpholinos could be detected (Lefty; microscopy of treated hESC colonies): over 75%
stem cell differentiation (H9 hESCs): did not induce stem cell differentiation

B1: rLefty: recombinant Lefty-B (R&D Systems) (protein, UniProt O75610 77-366, looked up)
Left-right determination …: RFSQSFREVAGRFLALEASTHLLVFGMEQRLPPNSELVQAVLRLFQEPVPKAALHRHGRLSPRSARARVTVEWLRVRDDGSNRTSLIDSRLVSVHESGWKAFDVTEAVNFWQQLSRPRQPLLLQVSVQREHLGPLASGAHKLVRFASQGAPAGLGEPQLELHTLDLGDYGAQGDCDPEAPMTEGTRCCRQEMYIDLQGMKWAENWVLEPPGFLAYECVGTCRQPPEALAFKWPFLGPRQCIASETDSLPMIVSIKEGGRTRPQVVSLPNMRVQKCSCASDGALVPRRLQP
dose needed to inhibit Nodal protein relative to hESC counterpart (Nodal; C8161 cells): higher doses
Nodal expression (Nodal; C8161 cells exposed 48 hrs to 0-1000 ng/mL): reduces

B2: recombinant Nodal: recombinant Nodal (R&D Systems) (protein, UniProt Q96S42 238-347, looked up)
Nodal homolog: HHLPDRSQLCRKVKFQVDFNLIGWGSWIIYPKQYNAYRCEGECPNPVGEEFHPTNHAYIQSLLKRYQPHRVPSTCCAPVKTKPLSMLYVDNGRVLLDHHKDMIVEECGCL
rescue of inhibition of in vitro clonogenicity (C8161 cells [3]; C8161 cells exposed to H9 CMTX): partially rescued
rescue of inhibition of in vitro clonogenicity (C8161 cells [3]; C8161 cells exposed to H9 Lefty-containing matrix): completely rescued
rescue of reduced colony formation (C8161 cells [3]; C8161 cells treated with MONodal): rescued
rescue of inhibition of in vitro clonogenicity (MDA-MB-231 cells; MDA-MB-231 cells exposed to H9 CMTX): partially rescued
rescue of inhibition of in vitro clonogenicity (MDA-MB-231 cells; MDA-MB-231 cells exposed to H9 Lefty-containing matrix): completely rescued
colony formation (C81-61 cells): did not induce colony formation
